Patent publication US20060063759A1, “Tricyclic steroid hormone nuclear receptor modulators” (priority 2002, published 2006)
Where two headings read alike, the source gives them in different places.

Key:
human MR = molecular target: T1, human MR (Homo sapiens, UniProt P08235); test: Mineralocorticoid Receptor Binding Assay ([3H]-aldosterone)
T1 construct: The full length human MR gene is cloned from a human kidney or human brain cDNA library; His tag from the pAcHLT vector (own knowledge); made in house; host or cells: Sf9 insect cells (baculovirus, pAcHLT transfer vector)
T1 sequence (P08235 1-984): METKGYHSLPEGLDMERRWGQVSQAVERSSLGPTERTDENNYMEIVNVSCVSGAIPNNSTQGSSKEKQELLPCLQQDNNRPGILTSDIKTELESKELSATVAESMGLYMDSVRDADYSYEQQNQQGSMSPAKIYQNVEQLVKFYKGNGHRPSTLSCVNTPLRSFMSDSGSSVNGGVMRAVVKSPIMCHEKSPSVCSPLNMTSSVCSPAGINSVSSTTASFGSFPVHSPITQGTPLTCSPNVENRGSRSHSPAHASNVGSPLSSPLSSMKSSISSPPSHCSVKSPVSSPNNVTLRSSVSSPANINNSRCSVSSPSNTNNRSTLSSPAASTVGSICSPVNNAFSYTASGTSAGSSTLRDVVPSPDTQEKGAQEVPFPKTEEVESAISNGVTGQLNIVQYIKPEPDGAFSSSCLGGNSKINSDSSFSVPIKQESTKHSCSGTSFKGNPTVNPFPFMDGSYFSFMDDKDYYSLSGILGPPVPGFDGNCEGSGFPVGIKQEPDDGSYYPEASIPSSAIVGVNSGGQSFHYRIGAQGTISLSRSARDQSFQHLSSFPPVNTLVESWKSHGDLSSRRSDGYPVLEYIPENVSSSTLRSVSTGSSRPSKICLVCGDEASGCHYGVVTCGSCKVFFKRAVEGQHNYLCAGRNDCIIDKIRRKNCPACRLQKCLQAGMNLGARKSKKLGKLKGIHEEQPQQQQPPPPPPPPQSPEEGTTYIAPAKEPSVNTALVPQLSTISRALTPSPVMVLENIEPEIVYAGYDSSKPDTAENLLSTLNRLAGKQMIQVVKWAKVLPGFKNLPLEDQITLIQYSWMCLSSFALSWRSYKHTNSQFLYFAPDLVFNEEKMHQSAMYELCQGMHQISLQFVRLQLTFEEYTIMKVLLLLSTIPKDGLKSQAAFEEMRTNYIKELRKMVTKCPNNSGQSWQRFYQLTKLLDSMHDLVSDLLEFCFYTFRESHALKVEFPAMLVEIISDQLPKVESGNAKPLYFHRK
Description: (§1) All ligands, radioligands, solvents, and reagents employed in the binding assays are readily available from commercial sources, or can be readily synthesized by the ordinarily skilled artisan.
The full length human MR gene is cloned from a human kidney or human brain cDNA library. […] The PCR reaction is performed in a final volume of 50 μl containing about 1 μl of a 50× stock solution of polymerase; about 1 μl of a 50× stock solution of dNTP; about 5 μl of an appropriate PCR buffer; about 1 μl of each primer; about […] of a H. kidney or H. brain cDNA library; and about 36 μl of water. The reaction is allowed to denature for about 30 seconds at 95 degrees Celsius, anneal for about 30 seconds at 55 degrees Celsius, and extend for about 5 minutes at 72 degrees Celsius, the sequence being repeated for a total of about 35 cycles. […] To extract the cDNA product from the agarose gel, the QIAEX II Gel Extraction protocol (QIAGEN, Inc.) is employed according to the manufacturer's instructions. Following extraction, the MR cDNA is cloned into an appropriate cloning vector (Zero Blunt TOPO PCR Cloning Kit Invitrogen, Inc.) and a pAcHLT-baculovinis transfer vector (B.D./Pharminogen), then expressed in SF9 insect cells, essentially according to manufacturer's instructions. Sf9 cells are grown at a scale where gram quantity cell pellets are obtained for subsequent use in the MR binding assay. Harvested cell pellets are lysed by repeated freeze-thaw cycles (about 4) in a suitable lysis buffer then centrifuged at about 1×10^3 G (with the supernatant being saved for future assays).
MR binding assays are performed in a final total volume of about 250 μl containing about 20-25 μg of protein and 0.5 nM of [^3H]-aldosterone plus varying concentrations of test compound or vehicle. The assay binding buffer consists of 30 mM sodium molybdate, 30 mM of TRIS-HCl, 5 mM sodium phosphate, 5 mM sodium pyrophosphate, and about 10% glycerol, pH=7.5.
Incubations are carried out at 4 degrees Celsius with shaking for about 16 hours. 200 μl aliquots of each incubation are filtered onto Millipore HA 0.45 micron 96-well filter plates, pre-moistened with cold 30 mM TRIS-HCl. The filter plates are suctioned dry with vacuum and immediately washed 3× with cold 30 mM TRIS-HCl. The plates are then punched out and the amount of receptor-ligand complex is determined by liquid scintillation counting using 4 ml of Ready Protein Plus™ liquid scintillation cocktail.
IC50 values (defined as the concentration of test compound required to decrease [^3H]-aldosterone binding by 50%/o) are then determined.

glucocorticoid receptor = molecular target: T2, glucocorticoid receptor (Homo sapiens, UniProt P04150); test: Glucocorticoid Receptor Binding Assay ([3H]-dexamethasone, A549 cell extract); details: [3H]-dexamethasone binding, read-out: GR Ki
T2 construct: containing 50-200 ug of A549 cell extract and 1.86 nM [^3H]-dexamethasone; host or cells: A549 human lung epithelial cells (sonicated cell extract)
T2 sequence (P04150 1-777): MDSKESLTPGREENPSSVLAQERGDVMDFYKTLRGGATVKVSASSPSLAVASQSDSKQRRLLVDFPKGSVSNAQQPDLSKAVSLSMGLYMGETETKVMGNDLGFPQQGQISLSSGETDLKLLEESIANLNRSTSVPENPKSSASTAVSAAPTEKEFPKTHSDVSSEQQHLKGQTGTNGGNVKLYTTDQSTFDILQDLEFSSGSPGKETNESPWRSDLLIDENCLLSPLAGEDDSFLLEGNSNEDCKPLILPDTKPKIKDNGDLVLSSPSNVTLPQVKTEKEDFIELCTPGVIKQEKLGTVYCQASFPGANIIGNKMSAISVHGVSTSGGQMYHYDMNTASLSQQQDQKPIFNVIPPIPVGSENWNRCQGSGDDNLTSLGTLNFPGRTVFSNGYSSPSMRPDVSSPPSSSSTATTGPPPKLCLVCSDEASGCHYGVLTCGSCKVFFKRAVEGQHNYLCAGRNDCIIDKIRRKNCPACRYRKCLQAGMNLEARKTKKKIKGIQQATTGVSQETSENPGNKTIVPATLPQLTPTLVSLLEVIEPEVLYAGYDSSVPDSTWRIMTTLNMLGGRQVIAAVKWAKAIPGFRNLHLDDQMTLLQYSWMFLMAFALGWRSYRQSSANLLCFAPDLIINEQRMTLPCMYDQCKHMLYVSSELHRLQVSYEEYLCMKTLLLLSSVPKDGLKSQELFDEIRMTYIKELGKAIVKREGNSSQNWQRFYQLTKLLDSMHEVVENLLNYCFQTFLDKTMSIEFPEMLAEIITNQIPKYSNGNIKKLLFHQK
Description: as §1
A549 human lung epithelial cells (ATCC) are grown at a scale where gram quantity cell pellets are obtained. Harvested cell pellets are washed twice in cold phosphate buffered saline, centrifuged, and resuspended in cold assay binding buffer. The assay binding buffer consists of 10% glycerol, 50 mM Tris-HCl (pH7.2), 75 mM sodium chloride, 1.5 mM magnesium chloride, 1.5 mM EDTA, and 10 mM sodium molybdate. Cell suspensions were lysed via sonication, centrifuged, and the “extract” supernatant is snap frozen and stored at −80 C until needed.
GR binding assays are performed in a final volume of 140 ul containing 50-200 ug of A549 cell extract and 1.86 nM [^3H]-dexamethasone (Amersham) plus varying concentrations of test compound or vehicle. Briefly, assays are prepared at RT in 96-well Fisher 3356 plates, each well containing 100 ul of A549 cell extract, 20 ul of [^3H]-dexamethasone, and 20 ul of test compound/vehicle. Incubations are carried out at 4 degrees Celsius for 16 hours. After incubation, 70 ul of 3× dextran-coated charcoal solution is added to each reaction, mixed, and incubated for 8 minutes at RT. 3×-dextran-coated charcoal solution consists of 250 ml assay binding buffer, 3.75 g Norit A charcoal (Sigma), and 1.25 g dextran T-70 (Amersham). Charcoal/unbound radioligand complexes are removed by centrifugation of the plate and 140 ul of supernatant from each well is transferred to another 96 well Optiplate (Packard Instruments). 200 ul of Microscint-20 scinillant (Packard Instruments) is added to each well and amount of receptor bound radioligand is determined using Packard Instruments TopCount instrument.

[1] = [3H]-aldosterone binding, human MR expressed in Sf9 cells, read-out: MR Ki

SMILES	Ki (human MR; [1])	Ki (glucocorticoid receptor)	Ki (human MR)
CS(=O)(=O)Nc1cccc(C=C2c3ccccc3CCc3cc(O)ccc32)c1 (mixture of isomers) [Example 162, N-[3-(2-Hydroxy-10,11-dihydro-dibenzo[a,d]cyclohepten-5-ylidenemethyl)-phenyl]-methanesulfonamide]	< 500 nM	< 500 nM	
CCS(=O)(=O)Nc1cccc(C=C2c3ccccc3CCc3cc(OC)ccc32)c1 (mixture of isomers) [Example 163, Ethanesulfonic acid [3-(2-methoxy-10,11-dihydro-dibenzo[a,d]cyclohepten-5-ylidenemethyl)-phenyl]-amide]	< 500 nM	< 500 nM	
COc1ccc2c(c1)CCc1ccccc1C2=Cc1ccc(N)cc1 (mixture of isomers) [Example 166, 4-(2-Methoxy-10,11-dihydro-dibenzo[a,d]cyclohepten-5-ylidenemethyl)-phenylamine]	< 500 nM	< 10000 nM	
COc1ccc2c(c1)CCc1ccccc1C2=Cc1cccc(O)c1 (mixture of isomers) [Example 167, 3-(2-Methoxy-10,11-dihydro-dibenzo[a,d]cyclohepten-5-ylidenemethyl)-phenol]	< 500 nM	< 500 nM	
COc1ccc2c(c1)CCc1ccccc1C2=Cc1ccc(O)cc1 (mixture of isomers) [Example 168, 4-(2-Methoxy-10,11-dihydro-dibenzo[a,d]cyclohepten-5-ylidenemethyl)-phenol]		< 1000 nM	< 500 nM
Oc1ccc(C=C2c3ccccc3CCc3cc(O)ccc32)cc1 (mixture of isomers) [Example 169, 5-(4-Hydroxy-benzylidene)-10,11-dihydro-5H-dibenzo[a,d]cyclohepten-2-ol]	< 500 nM	< 500 nM	
CS(=O)(=O)Nc1cccc(C=C2c3ccccc3CCc3cc(O)c(O)cc32)c1 (mixture of isomers) [Example 171, N-[3-(2,3-Dihydroxy-10,11-dihydro-dibenzo[a,d]cyclohepten-5-ylidenemethyl)-phenyl]-methanesulfonamide]	< 500 nM	< 500 nM	
CS(=O)(=O)Nc1cccc(C=C2c3ccccc3CCc3c(Cl)cccc32)c1 (mixture of isomers) [Example 205(a), N-[3-(1-Chloro-10,11-dihydro-dibenzo[a,d]cyclohepten-5-ylidenemethyl)-phenyl]-methanesulfonamide]	< 500 nM	< 500 nM	
CCS(=O)(=O)Nc1cccc(C=C2c3ccccc3CCc3c(Cl)cccc32)c1 (mixture of isomers) [Example 208(a), Ethanesulfonic acid [3-(1-chloro-10,11-dihydro-dibenzo[a,d]cyclohepten-5-ylidenemethyl)-phenyl]-amide]	< 500 nM	< 500 nM	
O=[N+]([O-])c1cccc(/C=C2/c3ccccc3OCc3c(Cl)cccc32)c1 [Example 272, 7-Chloro-11-(3-nitro-benzylidene)-6,11-dihydro-dibenzo[b,e]oxepine]		< 10000 nM	
CS(=O)(=O)Nc1cccc(/C=C2\c3ccccc3CCc3ccc(S(C)(=O)=O)cc32)c1 [Example 324]		< 1000 nM	
CCOc1ccc2c(c1)CCc1ccccc1C2=Cc1cccc(NS(C)(=O)=O)c1 [Example 331]		< 500 nM	
CCCOc1ccc2c(c1)CCc1ccccc1C2=Cc1cccc(NS(C)(=O)=O)c1 [Example 332]		< 500 nM	
O=c1[nH]c2ccc(/C=C3/c4ccccc4COc4cc(F)ccc43)cc2[nH]1 [Example 631]		< 1000 nM	
COc1cccc2c1SCc1ccccc1C2=Cc1cccc(NS(C)(=O)=O)c1 [Example 686]		< 500 nM	
CCNC(=O)Nc1cccc(C=C2c3ccccc3CSc3c(C)cccc32)c1 [Example 689]		< 500 nM	
O=S(=O)(Nc1cccc(/C=C2\c3ccccc3CSc3ccccc32)c1)c1ccc(Cl)c(Cl)c1 [Example 690]		< 1000 nM	
CS(=O)(=O)Nc1cccc(C(C(=O)O)=C2c3ccccc3CCc3ccccc32)c1 [Example 754, (10,11-Dihydro-dibenzo[a,d]cyclohepten-5-ylidene)-(3-methanesulfonylamino-phenyl)-acetic acid]		< 500 nM	
C/C(=C1\c2ccccc2CCc2cc(OCC3CC3)ccc21)c1cccc(NS(C)(=O)=O)c1 [Example 825]	< 500 nM		
C/C(=C1/c2ccccc2CCc2cc(OCC3CC3)ccc21)c1cccc(NS(C)(=O)=O)c1 [Example 826]	< 500 nM		
